Several values for one entry are separate records, joined by “and”; a condition that tells them apart may be missing. Equal values may be shown once. Read-outs that look alike come from different tables or passages of the source.
Key:
[1] = In vivo pharmacokinetic studies in rats; parameters: species or system SD rats; conditions: rats; for AUC(0-t): read-out: AUClast; for Tmax: read-out: Tmax
Description: This example describes pharmacokinetic (PK) studies of ARI-164, ARI-165, ARI-186, ARI-224, and ARI-226 in mice and rats. In the present studies, the test compounds were given to groups of mice and/or rats (N=3 in each group), intravenously (IV) at 2 mg/kg or orally (PO) at 10, 30, or 40 mg/kg. ARI-186, ARI-224 and ARI-226 were given orally to rats QD for 5 days at 10 mg/kg to assess whether decreased susceptibility to CYP1A1/1A2 metabolism would lead to increased accumulation. IV doses were formulated in DMSO, while PO doses were formulated in a 50/50 mixture of PEG400 and Tween 80 (single dose mouse and rat studies for ARI-164, ARI-165, ARI-186, ARI-224, ARI-226) or PEG400/Kolliphor HS15/Oleic Acid 45/45/10 (ARI-164 repeat dose rat study). Blood samples were collected at pre-dose and over a period of 24 hours post-dose. Plasma concentrations of the test compounds were determined by HPLC.

EMT-6 cancer cells = assay: EMT-6 subcutaneous syngeneic mouse tumor model (Example 48); type: in vivo, BALB/C mice; conditions: 40 mg/kg, IP
Description: This example describes in vivo studies that evaluated the anti-cancer efficacy of ARI-143, ARI-164, ARI-165, and ARI-186 in syngeneic mouse tumor models. Mice implanted subcutaneously with EMT-6 or Pan02 cancer cells were treated with ARI-143, ARI-164, ARI-165, ARI-186, or vehicle controls, as described below.
A monolayer culture of tumor cells was maintained in vitro in DMEM or RPMI1640 medium supplemented with 10% fetal bovine serum at 37° C. in an atmosphere of 5% CO2. Cells in exponential growth phase were harvested and quantitated by cell counter before tumor inoculation. The cell lines used are described in the table below.
Two subcutaneous syngeneic mouse tumor models were generated by innoculating female BALB/C or C57BL/6 mice with cancer cells at their right lower or front flank as detailed in the table below:
Each mouse was inoculated subcutaneously with tumor cells in 0.1 mL of PBS. Treatments were started when the mean tumor size reached approximately 80-120 mm^3 (around 100 mm^3). The administration of the test compounds and the animal number in each study group are shown in the study design. The date of tumor cell inoculation was denoted as day 0.
ARI-143, ARI-164, and ARI-165 were dissolved in DMSO at the final concentration of 26.7 mg/ml and stored at room temperature. In Pan02 studies of ARI-164 and ARI-186, both compounds were dissolved in 100% PEG400.
Randomization of animals was started when the mean tumor size reached approximately 90 mm^3 to form the mouse study groups. The randomization was-performed based on “Matched distribution” method using the multi-task method (StudyDirector™ software, version 3.1.399.19)/randomized block design. The mouse groups (ten in each group) were treated with vehicle (DMSO or PEG400) or the test compounds at a dose of 26-80 mg/kg by intraperitoneal (i.p.). injection, QD for 28 days or longer.
After tumor cell inoculation, the mice were checked daily for morbidity and mortality. During routine monitoring, the mice were checked for tumor growth and any effects of the treatment on behavior such as mobility, food and water consumption, body weight gain/loss (body weights were measured twice per week after randomization), eye/hair matting, and any other abnormalities. Mortality and observed clinical signs were recorded for individual mice in detail.
Tumor volumes were measured twice per week in two dimensions using a caliper, and the volume was expressed in mm^3 using the formula: V=(L×W×W)/2, where V is tumor volume, L is tumor length (the longest tumor dimension) and W is tumor width (the longest tumor dimension perpendicular to L). Dosing as well as tumor and body weight measurements was conducted in a Laminar Flow Cabinet. The body weights and tumor volumes were measured by using StudyDirector™ software (version 3.1.399.19). Dosing Holiday
Tumor growth inhibition percentage (TGI %) is an indicator for antitumor activity of a drug compound, and expressed as: TGI(%)=100×(1−T/C), where T and C are the mean tumor volume (or weight) of the treated and control groups, respectively, on a given day. Statistical analysis of the difference in mean tumor volume (MTV) among the groups was conducted using the data collected on the day when the MTV of the vehicle group reached the humane endpoints, so that TGI could be derived for all or most mice enrolled in the study.

[2] = SD, rat, plasma, iv, 2 mg/kg, single 2 mg/kg IV dose, Mean of 3 animals
[3] = SD, rat, plasma, iv, 2 mg/kg, single 2 mg/kg IV dose, individual animal
[4] = Sprague-Dawley (SD), rat, plasma, iv, 2 mg/kg, single 2 mg/kg IV dose, Mean of 3 animals
[5] = Sprague-Dawley (SD), rat, plasma, po, 10 mg/kg, single 10 mg/kg PO dose, Mean of 3 animals
[6] = Sprague-Dawley (SD), rat, plasma, po, 10 mg/kg, single 10 mg/kg PO dose, individual animal
[7] = single 2 mg/kg IV dose, individual animal, 2 mg/kg
[8] = single 10 mg/kg PO dose, individual animal, 10 mg/kg

CC[C@@H](O)c1csc(C(=O)c2c[nH]c3cc(F)ccc23)n1 [ARI-165, (R)-(6-Fluoro-1H-indol-3-yl)(4-(1-hydroxypropyl)thiazol-2-yl)methanone]
AUC(0-inf) [1, 2]: 12800 ng·h/mL
clearance [1, 2]: 5.38 mL/min/kg
AUC(0-t) [1, 2]: 12600 ng·h/mL
MRT inf [1, 3]: 0.81 h
MRT last [1, 3]: 0.79 h
Tmax [1, 3]: 0.083 h
MRT inf [1, 4]: 1.11 h
MRT last [1, 4]: 0.959 h
half-life [1, 4]: 1.33 h
Cmax ([1]; Sprague-Dawley (SD), rat, plasma, iv, 2 mg/kg, single 2 mg/kg IV dose, Mean of 3 animals, read-out: Cmax): 19200 ng/mL
Tmax [1, 4]: 0.083 h
Vd ([1]; Sprague-Dawley (SD), rat, plasma, iv, 2 mg/kg, single 2 mg/kg IV dose, Mean of 3 animals, read-out: Vss): 0.32 L/kg
AUC(0-inf) [1, 5]: 4310 ng·h/mL
MRT inf [1, 5]: 3.08 h
MRT last [1, 5]: 2.82 h
half-life [1, 5]: 1.09 h
AUC(0-t) [1, 5]: 4160 ng·h/mL
Cmax ([1]; Sprague-Dawley (SD), rat, plasma, po, 10 mg/kg, single 10 mg/kg PO dose, Mean of 3 animals, read-out: Cmax): 1120 ng/mL
Tmax [1, 5]: 2 h
AUC(0-inf) [1, 6]: 4680 ng·h/mL
MRT inf [1, 6]: 3.41 h
MRT last [1, 6]: 2.71 h
AUC(0-t) [1, 6]: 4260 ng·h/mL
Cmax ([1]; Sprague-Dawley (SD), rat, plasma, po, 10 mg/kg, single 10 mg/kg PO dose, individual animal, read-out: Cmax): 1250 ng/mL
Tmax [1, 6]: 2 h
bioavailability ([1]; Sprague-Dawley (SD), rat, plasma, 10 mg/kg PO vs 2 mg/kg IV, read-out: F (Bioavailability)): 6.73%
AUCinf [1, 7]: 19500 ng·h/mL and 16300 ng·h/mL and 2690 ng·h/mL
AUClast [1, 7]: 19500 ng·h/mL and 15700 ng·h/mL and 2620 ng·h/mL
Cl [1, 7]: 1.72 mL/min/kg and 2.05 mL/min/kg and 12.4 mL/min/kg
Cmax [1, 7]: 36500 ng/mL and 17100 ng/mL and 3880 ng/mL
MRTinf [1, 7]: 1.61 h and 0.91 h
MRTlast [1, 7]: 1.28 h and 0.8 h
T1/2 [1, 7]: 1.07 h and 2.11 h and 0.83 h
Vss [1, 7]: 0.0832 L/kg and 0.198 L/kg and 0.677 L/kg
AUCinf [1, 8]: 4650 ng·h/mL and 3620 ng·h/mL
AUClast [1, 8]: 4640 ng·h/mL and 3560 ng·h/mL
Cmax [1, 8]: 1070 ng/mL and 1040 ng/mL
MRTinf [1, 8]: 3.12 h and 2.71 h
MRTlast [1, 8]: 3.12 h and 2.64 h
T1/2 [1, 8]: 1.87 h and 0.541 h and 0.87 h
TGI (EMT-6 cancer cells; study day 6): 0.0%
TGI (EMT-6 cancer cells; study day 10): −7.9%
TGI (EMT-6 cancer cells; study day 13): −8.6%
TGI (EMT-6 cancer cells; study day 17): 14.5%
TGI (EMT-6 cancer cells; study day 20): 23.1%
TGI (EMT-6 cancer cells; study day 24): 25.8%
TGI (EMT-6 cancer cells; study day 27): 12.5%
TGI (EMT-6 cancer cells; study day 31): 9.1%

Reference: patent publication US11390621B2, “Chiral indole compounds and their use” (ARIAGEN, INC., priority 2019, dated 2022)
